# PubChem BioAssay (NCI)
#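 Exposure lasted 48 hours, with cells grown in 96-well plates and compounds tested at five concentrations. Here, GI50 denotes the concentration required for 50% inhibition of growth. TGI: concentration producing complete growth inhibition.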
# Legend:
# Assay in all cases: inhibition of tumour cell growth, NCI panel, 48 h
# MALME-3M melanoma = test system: MALME-3M melanoma
# MOLT-4 leukemia = test system: MOLT-4 leukemia
# SF-539 CNS = test system: SF-539 CNS
# BT-549 breast = test system: BT-549 breast
# SF-268 CNS = test system: SF-268 CNS
# KM12 colon = test system: KM12 colon
# NCI/ADR-RES ovarian = test system: NCI/ADR-RES ovarian
# NCI-H460 lung = test system: NCI-H460 lung
# HS 578T breast = test system: HS 578T breast
# IGROV1 ovarian = test system: IGROV1 ovarian
# T-47D breast = test system: T-47D breast
# HCT-15 colon = test system: HCT-15 colon
# OVCAR-8 ovarian = test system: OVCAR-8 ovarian
# EKVX NSCLC = test system: EKVX NSCLC
# SK-MEL-28 melanoma = test system: SK-MEL-28 melanoma
# SK-MEL-2 melanoma = test system: SK-MEL-2 melanoma
# UACC-257 melanoma = test system: UACC-257 melanoma
# MDA-MB-231 breast = test system: MDA-MB-231 breast
# K-562 leukemia = test system: K-562 leukemia
# OVCAR-4 ovarian = test system: OVCAR-4 ovarian
# HCT-116 colon = test system: HCT-116 colon
# OVCAR-5 ovarian = test system: OVCAR-5 ovarian
# RXF 393 renal = test system: RXF 393 renal
# HT29 colon = test system: HT29 colon
# A498 renal = test system: A498 renal
# M14 melanoma = test system: M14 melanoma
# ACHN renal = test system: ACHN renal
# MCF7 breast = test system: MCF7 breast
# U251 CNS = test system: U251 CNS
# NCI-H522 lung = test system: NCI-H522 lung
# CCRF-CEM leukemia = test system: CCRF-CEM leukemia
# HOP-62 NSCLC = test system: HOP-62 NSCLC
# SK-OV-3 ovarian = test system: SK-OV-3 ovarian
# SNB-19 CNS = test system: SNB-19 CNS
# LOX IMVI melanoma = test system: LOX IMVI melanoma
# OVCAR-3 ovarian = test system: OVCAR-3 ovarian
# SK-MEL-5 melanoma = test system: SK-MEL-5 melanoma
# A549 NSCLC = test system: A549 NSCLC
# SNB-75 CNS = test system: SNB-75 CNS
# COLO 205 colon = test system: COLO 205 colon
# HL-60(TB) leukemia = test system: HL-60(TB) leukemia
# NCI-H23 lung = test system: NCI-H23 lung
# SR leukemia = test system: SR leukemia
# TK-10 renal = test system: TK-10 renal
# MDA-MB-435 = test system: MDA-MB-435
# UO-31 renal = test system: UO-31 renal
# UACC-62 melanoma = test system: UACC-62 melanoma
# DU-145 prostate = test system: DU-145 prostate
# HOP-92 NSCLC = test system: HOP-92 NSCLC
# HCC-2998 colon = test system: HCC-2998 colon
# CAKI-1 renal = test system: CAKI-1 renal
# 786-0 renal = test system: 786-0 renal
# SF-295 CNS = test system: SF-295 CNS
# SW-620 colon = test system: SW-620 colon
# PC-3 prostate = test system: PC-3 prostate
# NCI-H226 lung = test system: NCI-H226 lung
smiles,measurement,setting,value
O=c1c2c3c(sc2nc(N/N=C/c2ccc(Br)cc2)n1Cc1ccccc1)CCCC3,GI50,MALME-3M melanoma,42.7 µM
same,TGI,MALME-3M melanoma,> 100 µM
same,GI50,MOLT-4 leukemia,3.81 µM
same,TGI,MOLT-4 leukemia,> 100 µM
same,GI50,SF-539 CNS,10.8 µM
same,TGI,SF-539 CNS,> 100 µM
same,GI50,BT-549 breast,8.02 µM
same,TGI,BT-549 breast,> 100 µM
same,GI50,SF-268 CNS,14.1 µM
same,TGI,SF-268 CNS,> 100 µM
same,GI50,KM12 colon,> 100 µM
same,TGI,KM12 colon,> 100 µM
same,GI50,NCI/ADR-RES ovarian,> 100 µM
same,TGI,NCI/ADR-RES ovarian,> 100 µM
same,GI50,NCI-H460 lung,10.2 µM
same,TGI,NCI-H460 lung,> 100 µM
same,GI50,HS 578T breast,> 100 µM
same,TGI,HS 578T breast,> 100 µM
same,GI50,IGROV1 ovarian,58.7 µM
same,TGI,IGROV1 ovarian,> 100 µM
same,GI50,T-47D breast,21.2 µM
same,TGI,T-47D breast,> 100 µM
same,GI50,HCT-15 colon,8.98 µM
same,TGI,HCT-15 colon,> 100 µM
same,GI50,OVCAR-8 ovarian,47 µM
same,TGI,OVCAR-8 ovarian,> 100 µM
same,GI50,EKVX NSCLC,7.76 µM
same,TGI,EKVX NSCLC,> 100 µM
same,GI50,SK-MEL-28 melanoma,> 100 µM
same,TGI,SK-MEL-28 melanoma,> 100 µM
same,GI50,SK-MEL-2 melanoma,6.08 µM
same,TGI,SK-MEL-2 melanoma,> 100 µM
same,GI50,UACC-257 melanoma,> 100 µM
same,TGI,UACC-257 melanoma,> 100 µM
same,GI50,MDA-MB-231 breast,48 µM
same,TGI,MDA-MB-231 breast,> 100 µM
same,GI50,K-562 leukemia,4.1 µM
same,TGI,K-562 leukemia,> 100 µM
same,GI50,OVCAR-4 ovarian,9.67 µM
same,TGI,OVCAR-4 ovarian,> 100 µM
same,GI50,HCT-116 colon,5.66 µM
same,TGI,HCT-116 colon,> 100 µM
same,GI50,OVCAR-5 ovarian,> 100 µM
same,TGI,OVCAR-5 ovarian,> 100 µM
same,GI50,RXF 393 renal,5.98 µM
same,TGI,RXF 393 renal,> 100 µM
same,GI50,HT29 colon,> 100 µM
same,TGI,HT29 colon,> 100 µM
same,GI50,A498 renal,> 100 µM
same,TGI,A498 renal,> 100 µM
same,GI50,M14 melanoma,9.15 µM
same,TGI,M14 melanoma,> 100 µM
same,GI50,ACHN renal,> 100 µM
same,TGI,ACHN renal,> 100 µM
same,GI50,MCF7 breast,5.63 µM
same,TGI,MCF7 breast,> 100 µM
same,GI50,U251 CNS,7.83 µM
same,TGI,U251 CNS,> 100 µM
same,GI50,NCI-H522 lung,7.21 µM
same,TGI,NCI-H522 lung,> 100 µM
same,GI50,CCRF-CEM leukemia,7.23 µM
same,TGI,CCRF-CEM leukemia,> 100 µM
same,GI50,HOP-62 NSCLC,7.7 µM
same,TGI,HOP-62 NSCLC,> 100 µM
same,GI50,SK-OV-3 ovarian,> 100 µM
same,TGI,SK-OV-3 ovarian,> 100 µM
same,GI50,SNB-19 CNS,41.8 µM
same,TGI,SNB-19 CNS,> 100 µM
same,GI50,LOX IMVI melanoma,19.3 µM
same,TGI,LOX IMVI melanoma,> 100 µM
same,GI50,OVCAR-3 ovarian,32.5 µM
same,TGI,OVCAR-3 ovarian,> 100 µM
same,GI50,SK-MEL-5 melanoma,5.88 µM
same,TGI,SK-MEL-5 melanoma,> 100 µM
same,GI50,A549 NSCLC,46.2 µM
same,TGI,A549 NSCLC,> 100 µM
same,GI50,SNB-75 CNS,3.33 µM
same,TGI,SNB-75 CNS,> 100 µM
same,GI50,COLO 205 colon,5.88 µM
same,TGI,COLO 205 colon,> 100 µM
same,GI50,HL-60(TB) leukemia,9.26 µM
same,TGI,HL-60(TB) leukemia,> 100 µM
same,GI50,NCI-H23 lung,> 100 µM
same,TGI,NCI-H23 lung,> 100 µM
same,GI50,SR leukemia,4.98 µM
same,TGI,SR leukemia,> 100 µM
same,GI50,TK-10 renal,39.9 µM
same,TGI,TK-10 renal,> 100 µM
same,GI50,MDA-MB-435,44.1 µM
same,TGI,MDA-MB-435,> 100 µM
same,GI50,UO-31 renal,86.6 µM
same,TGI,UO-31 renal,> 100 µM
same,GI50,UACC-62 melanoma,> 100 µM
same,TGI,UACC-62 melanoma,> 100 µM
same,GI50,DU-145 prostate,90.9 µM
same,TGI,DU-145 prostate,> 100 µM
same,GI50,HOP-92 NSCLC,8.63 µM
same,TGI,HOP-92 NSCLC,> 100 µM
same,GI50,HCC-2998 colon,> 100 µM
same,TGI,HCC-2998 colon,> 100 µM
same,GI50,CAKI-1 renal,74.3 µM
same,TGI,CAKI-1 renal,> 100 µM
same,GI50,786-0 renal,3.07 µM
same,TGI,786-0 renal,> 100 µM
same,GI50,SF-295 CNS,5.75 µM
same,TGI,SF-295 CNS,> 100 µM
same,GI50,SW-620 colon,46.2 µM
same,TGI,SW-620 colon,> 100 µM
same,GI50,PC-3 prostate,6.64 µM
same,TGI,PC-3 prostate,> 100 µM
same,GI50,NCI-H226 lung,37.4 µM
same,TGI,NCI-H226 lung,> 100 µM
